Laboratory results as given in patent US7205382B2, “Peptides, the production and use thereof for binding immunoglobulins” (Fresenius Medical Care Affina GmbH, priority 2000, dated 2007).
Bridge positions count the residues as written; N and C are the ends. Ends that are not written are not given here. cellulose = not defined here; βAla = NCCC(=O)O

Legend:
Type in all cases: binding
Parameters in all cases: key: No binding of immunoglobulin for the defined peptide variant, detection negative: 0; Binding of immunoglobulin for the defined peptide variant, detection positive: +
human IgG-Fc = experiment: Cellulose-immobilized 13-mer peptide variants incubated with human IgG-Fc, anti-human IgG-AP detection; conditions: IgG-Fc 1 μg/ml in blocking buffer, 3 h room temperature
Outline: (§1)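 Read-out was colorimetric NBT/BCIP staining (developing buffer pH 9.5) after alkaline phosphatase-conjugated anti-human IgG at 1.2 μg/ml. Before this, the immobilized peptides had been incubated 3 h at room temperature with 1 μg/ml IgG-Fc, 1:10,000 diluted serum, or albumin-containing blocking buffer without addition.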

serum albumin = experiment: Cellulose-immobilized 13-mer peptide variants incubated with serum albumin (negative control), anti-human IgG-AP detection; conditions: blocking buffer without addition, 3 h room temperature
Outline: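 Spot membrane, (βA)(βA) spacer; T-TBS pH 8.0 wash, block 5% saccharose/4% BSA. 3 h RT with IgG-Fc 1 μg/ml, serum 1:10,000, or block buffer only (specificity control). 3× wash, AP-anti-human IgG 1.2 μg/ml, NBT/BCIP in pH 9.5 buffer.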

[1] = test system: immunoglobulins in human plasma; experiment: Cellulose-immobilized 13-mer peptide variants incubated with human plasma, anti-human IgG-AP detection; conditions: human plasma as sample, diluted 1:10,000 in blocking buffer, 3 h room temperature
Outline: as §1

Substance | Result for incubation with human IgG-Fc (immunoglobulin binding detection) (human IgG-Fc) | Result for incubation with serum albumin (immunoglobulin binding detection) (serum albumin) | Result for incubation with human plasma (immunoglobulin binding detection) [1]
09M: cellulose-bound 13-mer variant DCAWHLGEMVWCT-(βA)(βA) (DCAWHLGEMVWCT-{βAla-βAla-cellulose}; disulfide 2-12 (inferred); reading uncertain; also: printed as DCAWHLGEMVWCT-(βA)(βA)) | + | 0 | 0
09N: cellulose-bound 13-mer variant DCAWHLGENVWCT-(βA)(βA) (DCAWHLGENVWCT-{βAla-βAla-cellulose}; disulfide 2-12 (inferred); reading uncertain; also: printed as DCAWHLGENVWCT-(βA)(βA)) | 0 | 0 | 0
09P: cellulose-bound 13-mer variant DCAWHLGEPVWCT-(βA)(βA) (DCAWHLGEPVWCT-{βAla-βAla-cellulose}; disulfide 2-12 (inferred); reading uncertain; also: printed as DCAWHLGEPVWCT-(βA)(βA)) | + | 0 | 0
09Q: cellulose-bound 13-mer variant DCAWHLGEQVWCT-(βA)(βA) (DCAWHLGEQVWCT-{βAla-βAla-cellulose}; disulfide 2-12 (inferred); reading uncertain; also: printed as DCAWHLGEQVWCT-(βA)(βA)) | + | 0 | 0
09R: cellulose-bound 13-mer variant DCAWHLGERVWCT-(βA)(βA) (DCAWHLGERVWCT-{βAla-βAla-cellulose}; disulfide 2-12 (inferred); reading uncertain; also: printed as DCAWHLGERVWCT-(βA)(βA)) | + | 0 | +
09S: cellulose-bound 13-mer variant DCAWHLGESVWCT-(βA)(βA) (DCAWHLGESVWCT-{βAla-βAla-cellulose}; disulfide 2-12 (inferred); reading uncertain; also: printed as DCAWHLGESVWCT-(βA)(βA)) | 0 | 0 | 0
09T: cellulose-bound 13-mer variant DCAWHLGETVWCT-(βA)(βA) (DCAWHLGETVWCT-{βAla-βAla-cellulose}; disulfide 2-12 (inferred); reading uncertain; also: printed as DCAWHLGETVWCT-(βA)(βA)) | 0 | 0 | 0
09V: cellulose-bound 13-mer variant DCAWHLGEVVWCT-(βA)(βA) (DCAWHLGEVVWCT-{βAla-βAla-cellulose}; disulfide 2-12 (inferred); reading uncertain; also: printed as DCAWHLGEVVWCT-(βA)(βA)) | 0 | 0 | 0
09W: cellulose-bound 13-mer variant DCAWHLGEWVWCT-(βA)(βA) (DCAWHLGEWVWCT-{βAla-βAla-cellulose}; disulfide 2-12 (inferred); reading uncertain; also: printed as DCAWHLGEWVWCT-(βA)(βA)) | 0 | 0 | 0
09Y: cellulose-bound 13-mer variant DCAWHLGEYVWCT-(βA)(βA) (DCAWHLGEYVWCT-{βAla-βAla-cellulose}; disulfide 2-12 (inferred); reading uncertain; also: printed as DCAWHLGEYVWCT-(βA)(βA)) | 0 | 0 | 0
10A: cellulose-bound 13-mer variant DCAWHLGELAWCT-(βA)(βA) (DCAWHLGELAWCT-{βAla-βAla-cellulose}; disulfide 2-12 (inferred); reading uncertain; also: printed as DCAWHLGELAWCT-(βA)(βA)) | 0 | 0 | 0
10C: cellulose-bound 13-mer variant DCAWHLGELCWCT-(βA)(βA) (DCAWHLGELCWCT-{βAla-βAla-cellulose}; not fully specified (bridges); printed as DCAWHLGELCWCT-(βA)(βA); cysteine pairing not given here; reading uncertain) | 0 | 0 | 0
10D: cellulose-bound 13-mer variant DCAWHLGELDWCT-(βA)(βA) (DCAWHLGELDWCT-{βAla-βAla-cellulose}; disulfide 2-12 (inferred); reading uncertain; also: printed as DCAWHLGELDWCT-(βA)(βA)) | 0 | 0 | 0
10E: cellulose-bound 13-mer variant DCAWHLGELEWCT-(βA)(βA) (DCAWHLGELEWCT-{βAla-βAla-cellulose}; disulfide 2-12 (inferred); reading uncertain; also: printed as DCAWHLGELEWCT-(βA)(βA)) | 0 | 0 | 0
10F: cellulose-bound 13-mer variant DCAWHLGELFWCT-(βA)(βA) (DCAWHLGELFWCT-{βAla-βAla-cellulose}; disulfide 2-12 (inferred); reading uncertain; also: printed as DCAWHLGELFWCT-(βA)(βA)) | 0 | 0 | 0
10G: cellulose-bound 13-mer variant DCAWHLGELGWCT-(βA)(βA) (DCAWHLGELGWCT-{βAla-βAla-cellulose}; disulfide 2-12 (inferred); reading uncertain; also: printed as DCAWHLGELGWCT-(βA)(βA)) | 0 | 0 | 0
10H: cellulose-bound 13-mer variant DCAWHLGELHWCT-(βA)(βA) (DCAWHLGELHWCT-{βAla-βAla-cellulose}; disulfide 2-12 (inferred); reading uncertain; also: printed as DCAWHLGELHWCT-(βA)(βA)) | 0 | 0 | 0
10I: cellulose-bound 13-mer variant DCAWHLGELIWCT-(βA)(βA) (DCAWHLGELIWCT-{βAla-βAla-cellulose}; disulfide 2-12 (inferred); reading uncertain; also: printed as DCAWHLGELIWCT-(βA)(βA)) | 0 | 0 | 0
10K: cellulose-bound 13-mer variant DCAWHLGELKWCT-(βA)(βA) (DCAWHLGELKWCT-{βAla-βAla-cellulose}; disulfide 2-12 (inferred); reading uncertain; also: printed as DCAWHLGELKWCT-(βA)(βA)) | 0 | 0 | 0
10L: cellulose-bound 13-mer variant DCAWHLGELLWCT-(βA)(βA) (DCAWHLGELLWCT-{βAla-βAla-cellulose}; disulfide 2-12 (inferred); reading uncertain; also: printed as DCAWHLGELLWCT-(βA)(βA)) | 0 | 0 | 0
10M: cellulose-bound 13-mer variant DCAWHLGELMWCT-(βA)(βA) (DCAWHLGELMWCT-{βAla-βAla-cellulose}; disulfide 2-12 (inferred); reading uncertain; also: printed as DCAWHLGELMWCT-(βA)(βA)) | 0 | 0 | 0
